In patent US7537912B2, “Methods of measuring luminogenic activity with a protected coelenterazine” (Promega Corporation, priority 2001, dated 2009):

Experiments:
[1] = test system: CHO cells transfected with pHRL CMV (Renilla luciferase); test: Live cell assay, signal to background ratio; format: cell-based, Chinese hamster; details: for Change of luminescence from cell samples after Tergitol NP-9 was added: TERGITOL NP-9 final concentration 1%
From the text: In these examples, the behavior of luminophores and protected luminophores were examined in situ in a variety of cultured cells. Cells were transiently or stably transfected with a plasmid encoding Renilla luciferase. Luminescence was compared between cells contacted with a coelenterazine (VI or VII) or a protected luminophore (IX, XV, or XVI).
Chinese hamster ovary (CHO) cells were maintained in Ham's F-12 media supplemented with 10% fetal bovine serum (FBS). HeLa and 293 cells were maintained in DMEM media supplemented with 10% fetal calf serum (FCS). All cell lines were grown at 37° C. in the presence of 5% CO2. Cells were transiently transfected with either 15 μg pUC19 or pRL-Control plasmid (PROMEGA CORPORATION, E6271 ) at a concentration of 7.5×10^5 cells per 10 cm plate using Tfx-20 (PROMEGA CORP., E2391) or TransFast™ Transfection Reagent (PROMEGA CORP., E2431). The following day, transfections were pooled and split into 48 wells of a white DYNEX 96-well luminometer plate.
The cells thus prepared were then subjected to a variety of assays. Reaction buffers for these assays were prepared using either DMEM or F12 media with FBS or FCS (10% by volume). Coelenterazine VI, coelenterazine VII or one of protected luminophores IX, XV, or XVI was then added to yield a concentration of 60 μM. These buffers were then used for luminescence measurements in the following assays. Luminescence was measured using an ORION luminometer.
Media was aspirated from the cells after 24 or 48 hours following transfection. The cells were washed with 100 μl per well of 1× phosphate buffered saline. Reaction buffer containing either VI or IX was titrated into complete media by half-logs, and these solutions were added to empty wells and to wells containing transfected cells. Luminescence was measured 5 minutes after media replacement. Immediately following the initial measurement, TERGITOL NP-9 (SIGMA CHEMICALS) was added to a final concentration of 1%. Samples were mixed for approximately 15 seconds, and luminescence was integrated over 1 second per well. The luminescence measured from cell samples increased after Tergitol NP-9 was added to samples containing coelenterazine VI or VII.
Autoluminescence was taken as the luminescence measured for samples containing medium and serum alone. The luminescence divided by the autoluminescence was taken as the signal to background ratio (S/B).

[2] = test system: CHO hRL25 cells (which express luciferase); test: Localization of luminescence, cells expressing luciferase; format: cell-based, Chinese hamster; details: 100 μM substrate; for RL (RLU): after addition of purified Renilla luciferase; for Subs (RLU): before exogenous luciferase
Method: (§1) CHO hRL25 cells (which express luciferase) (4.5 mL of (7.5×10^5 cells)/(plate/5×10^9 cells/mL) were resuspended in 5.5 mL media and put into 96 well plates. The next day, the cells were aspirated, washed with 100 μL PBS, and then aspirated again. 100 μL of media (F12) containing no substrate (background) was then added to wells containing no cells. These wells were then read for 1 sec/well with an ORION Luminometer (BERTHHOLD) (Table E; Bkg).
(§2) Similarly, 100 μL portions of media containing 100 μM of either POM-h or coelenterazine-h were placed in wells containing cells or wells alone. These wells were then read for 1 sec/well with an ORION Luminometer (BERTHHOLD) immediately following (coelenterazine) and 10 minutes post-addition (POM-h) (Table E; Subs).
(§3) Thereafter, 0.5 μL of purified Renilla luciferase (3.96×10^−5 M/Reaction (Chemicon) was added to each well. All wells were then read for 1 second/well (Table E; RL).
(§4) Similarly, 100 μL portions of media (F12) containing 100 μM of either coelenterazine or triacetyl coelenterazine were placed in wells containing cells or wells alone. These wells were then read for 1 sec/well with an ORION Luminometer (BERTHHOLD) immediately following (coelenterazine) and 4 minutes post-addition (triacetyl coelenterazine) (Table F; Subs).
(§5) Thereafter, 0.5 μL of purified Renilla luciferase (3.96×10^−5 M/Reaction (Chemicon) was added to each well. All wells were then read for 1 second/well (Table F; RL).

[3] = test system: Untransfected CHO (which do not naturally produce luciferase); test: Localization of luminescence, untransfected cells; format: cell-based, Chinese hamster; details: Table F, 100 μM substrate; for RL (RLU): after addition of purified Renilla luciferase; for Subs (RLU): before exogenous luciferase
Method: as §4, §5

Renilla luciferase = molecular target: T1, Renilla luciferase (Renilla reniformis, UniProt P27652); test: Localization of luminescence, media only wells with and without purified Renilla luciferase; format: biochemical; details: Table E, no cells, 100 μM substrate
T1 construct: purchased Chemicon Corp
T1 sequence (P27652 1-311): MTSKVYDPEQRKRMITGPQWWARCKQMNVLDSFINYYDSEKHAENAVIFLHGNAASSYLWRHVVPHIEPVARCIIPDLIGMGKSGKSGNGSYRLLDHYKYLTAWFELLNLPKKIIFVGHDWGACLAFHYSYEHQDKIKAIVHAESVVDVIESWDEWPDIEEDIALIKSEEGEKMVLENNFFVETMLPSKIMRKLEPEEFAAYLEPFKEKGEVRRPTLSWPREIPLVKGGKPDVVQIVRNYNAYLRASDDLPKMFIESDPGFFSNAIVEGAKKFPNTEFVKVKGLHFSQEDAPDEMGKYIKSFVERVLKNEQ
Method: as §1, §2, §3

[4] = Table F, hRL2 cells, read immediately (coelenterazine) or 4 minutes post-addition (triacetyl coelenterazine)

Compound	Change of luminescence from cell samples after Tergitol NP-9 was added [1]	RL (RLU) ([2]; Table F, hRL2 cells)	Subs (RLU) [2, 4]	RL (RLU) [3]	Subs (RLU) [3]	RL (RLU) ([2]; Table E, hRL25 cells)	Subs (RLU) ([2]; Table E, hRL25 cells, read immediately (coelenterazine-h) or 10 minutes post-addition (POM-h))	RL (RLU) (Renilla luciferase; after addition of purified Renilla luciferase)	Subs (RLU) (Renilla luciferase; before luciferase)	Ratios - compound/reference Luminesc. ([1]; reference compound VI, CHO cells transfected with pHRL CMV, 5 minutes after media replacement)	Ratios - compound/reference S/N ([1]; reference compound VI, luminescence divided by autoluminescence)	Ratios - compound/reference Autolum. ([1]; reference compound VI, medium and serum alone)
coelenterazine [compound VI, reference compound]	increased	110008374 RLU	139842 RLU	11930147 RLU	6253 RLU	–	–	–	–	–	–	–
O=c1c(Cc2ccccc2)nc2c(Cc3ccccc3)[nH]c(-c3ccc(O)cc3)cn1-2 [compound VII, coelenterazine-h, reference compound]	increased	–	–	–	–	331381 RLU	39342 RLU	278467 RLU	763 RLU	–	–	–
CC(=O)Oc1ccc(Cc2nc3c(Cc4ccccc4)nc(-c4ccc(OC(C)=O)cc4)cn3c2OC(C)=O)cc1 [compound IX, triacetyl-coelenterazine]	dropped almost to the level of autoluminescence	229111 RLU	224353 RLU	8910 RLU	864 RLU	–	–	–	–	1.5	9.1	0.2
